In patent EP0430037A2, “Process for producing 2-carbon-substituted carbapenem derivatives” (BANYU PHARMACEUTICAL CO., LTD., priority 1989, dated 1991):

How the values were obtained:
S. aureus 4970 = assay: Protective effects against experimental infectious disease of mice; type: in vivo, Male mice (ddY); conditions: Staphylococcus aureus, 4970, 96 h; oral administration one hour after inoculation of 5 x 10⁵ cells in 5% mucin; mortality four days later; eight mice per group; read-out: ED₅₀
Description: (2) Protective effects against experimental infectious disease of mice
Male mice (ddY) of 4 weeks old having body weights of 20±1 g were employed, and the test was conducted with eight mice per group. Microorganism used: S. aureus 4970
5 x 10⁵ cells of the pathogenic microorganism suspended in 5% mucin were […] injected to each mouse. One hour after the inoculation of the microorganism, the compound of the present invention was orally administered in the form of solutions having various concentrations. Four days later, the mortality of the mice was determined, and the ED₅₀ value was calculated.

[1] = Concentration in blood and recovery rate in urine after oral administration (bioassay); type: in vivo, ddY male mice; conditions: mouse, 40 mg/kg orally, mice, bioassay with S. lutea PC 11001, Example 26 quantified as its non-ester form (Example 25); for concentration at 0.25 h: read-out: Concentration in blood 0.25 hr later; for concentration at 0.5 h: read-out: Concentration in blood 0.5 hr later
Description: (3) Concentration in blood and recovery rate in urine
ddY male mice of 4 weeks old
40 mg/kg of the test compound was orally administered to each mouse, and the change with time of the concentration in blood and the recovery rate in urine for from 0 to 6 hours were measured. The quantitative analysis was conducted by a bioassay using S. lutea PC 11001 as the test microorganism. With respect to the compound of Example 26, the quantitative analysis was conducted in the form of its non-ester form i.e. as the compound of Example 25.

S. aureus 209P NIHJ JC1 = assay: Antibacterial activities in vitro (agar plate dilution method); type: cell-based; conditions: Staphylococcus aureus; Mueller Hinton agar, inoculum size 10⁶ CFU/mℓ, 37°C for 16 hours
Description: (1) Antibacterial activities in vitro The antibacterial activities were measured by the following agar plate dilution method. One platinum loopful of each test microorganism incubated overnight in Mueller Hinton broth, was inoculated to Mueller Hinton agar (inoculum size: 10⁶ CFU/mℓ). Such a culture medium contained a test compound in a predetermined concentration.

In the case of `C=C(C)C1=C(C(=O)OCOC(=O)C(C)(C)C)N2C(=O)[C@H]([C@@H](C)O)[C@H]2[C@H]1C` [Example 26, Pivaloyloxymethyl (1S,5R,6S)-6-((1R)-1-hydroxyethyl)-2-(1-methylvinyl)-1-methylcarbapen-2-em-3-carboxylate], the ED50 (S. aureus 4970) is reported as 0.36 mg/kg, the concentration at 0.25 h ([1]; blood) is reported as 44900 ng/mL and the concentration at 0.5 h ([1]; blood) is reported as 29100 ng/mL.
Work on `C=C(C)C1=C(C(=O)O)N2C(=O)[C@H]([C@@H](C)O)[C@H]2[C@H]1C` [Example 25, Sodium (1S,5R,6S)-6-((1R)-1-hydroxyethyl)-2-(1-methylvinyl)-1-methylcarbapen-2-em-3-carboxylate] yielded an MIC (S. aureus 209P NIHJ JC1) of 0.05 µg/mL, an ED50 (S. aureus 4970) of 0.34 mg/kg and a concentration at 0.25 h ([1]; blood) of 4100 ng/mL. For the same molecule, the concentration at 0.5 h ([1]; blood) was 2900 ng/mL, the concentration at 1 h ([1]; blood, read-out: Concentration in blood 1 hr later) was 1600 ng/mL and the dose excreted at 6 h ([1]; urine, 0-6 hrs) was 1.8%.
